Laboratory results published in PubChem BioAssay AID1918955 (Molecular Pharmacology Branch, DTP, NCI, 2023).

System: NCI/ADR-RES complex spheroid viability
Experiment: Anticancer human tumor NCI/ADR-RES cell line growth inhibition;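 also: spheroids exposed to compounds for 7 days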;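 as to viability, T/C: 100% = DMSO vehicle treated spheroids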
Conditions: for IC50: curve of first compound; for viability, T/C: stronger effect = lower value
Description: Multicellular complex tumor spheroid response to LSD1 Inhibitor Iadademstat in combination with a variety of drugs and investigational agents in selected tumor cell lines
The current study was undertaken to assess response to LSD1 inhibitors in combination with standard-of-care drugs and investigational agents in solid tumor complex spheroid models as well as in the K-562 leukemia. Complex spheroids include a stromal component modeled by human endothelial cells (HUVEC) and fibroblasts modeled by human mesenchymal stem cells (MSCs). The concentration ranges selected for each drug and investigational agent were based upon clinically achievable concentrations if the clinical Cmax of the agent was known.
Compounds. The drugs and investigational agents used in this study are listed on Table 1. All of the agents used, including staurosporine (NSC755774) and gemcitabine (NSC613327), were obtained from the Developmental Therapeutics Program, NCI. FDA-approved anticancer drugs are available from the NCI at http://dtp.nci.nih.gov/branches/dscb/oncology_drugset_explanation.html. Drugs and investigational agents were >95% pure by proton nuclear magnetic resonance (NMR) and liquid chromatography/mass spectrometry (LC/MS). Stock solutions were prepared at 400x in DMSO, stored at -70 degrees C, and diluted in fresh medium prior to their use. The final concentration of DMSO in cell culture wells never exceeded 0.25% (v/v). The FDA-approved anticancer drug set is available from the Developmental Therapeutics Program at https://dtp.cancer.gov/organization/dscb/obtaining/available_plates.htm. All drugs and investigational agents were tested over a range starting from a high concentration at or near the clinical Cmax and decreasing in half-log increments. If the clinical Cmax for an agent had not been determined, the highest concentration tested was 10 microM.
Cell Lines. The patient-derived cancer cell (PDC) lines: 292921-168-R-J2-PDC, K24384-001-R-PDC, and 521955-158-R2-J5-PDC pancreatic carcinomas, 556581-035-R-J1 ovarian carcinoma, 324938-238-R-J1-PDC, 855422-203-R-J1-PDC and 883617-216-R-J1-PDC urothelial bladder carcinomas, 743489-274-T-PDC renal cell carcinoma, 138582-R-J1 Merkel cell tumor, K60290-347-R-J1 and K57222-313-R-J1-PDC glioblastomas, 653999-131-R-J2-PDC, LG0703-F948-PDC, and 349418-098-R-PDC non-small cell lung carcinomas, 885512-296-R-J2-PDC, 171881-019-R-J1-PDC breast carcinomas and 186277-243-T-J2-PDC and 233499-124-R-J2-PDC colon carcinomas were obtained from the NCI Patient-Derived Models Repository (PDMR, https://pdmr.cancer.gov). The established cell lines NCI/ADR-RES (RRID:CVCL_14520 and OVCAR-5 (RRID:CVCL_1628) ovarian carcinomas, 786-O (RRID:CVCL_1051) and A498 (RRID:CVCL_A498) renal cell carcinoma, NCI-H211 (ATCC, cat. CRL-5824; RRID:CVCL_1529), NCI-H196 (ATCC, cat. CRL-5823, RRID:CVCL_1509), SW 1271 (ATCC, cat. CRL-2177, RRID:CVCL_1716) and NCI-H1876 (ATCC, cat. CRL-5902, RRID:CVCL_1503) small cell lung carcinomas, MDA-MB-231 (RRID:CVCL_0062) and MDA-MB-468 (RRID:CVCL_0419)breast carcinomas (10-12). Pooled donor human umbilical vein endothelial cells (HUVEC, Lonza, cat. CC-2519) and human mesenchymal stem cells (hMSC, Lonza, cat. PT-2501) were purchased from Lonza (Walkersville, MD).
Cell Culture. All cells were maintained in an incubator at 37 degrees C and 5% CO2 with 95% humidity. The PDC lines were cultured according to standard operating procedures established by the NCI PDMR (https://pdmr.cancer.gov). Briefly all PDCs were thawed and cultured in Matrigel-coated flasks prepared with a working solution of 1X Ham's F-12 nutrient mix, without supplementation (Invitrogen, Waltham, MA, cat. 11765054), 100 U/mL penicillin-streptomycin (Invitrogen, cat. 15140122), and 2.5% Matrigel (Corning Inc., Corning, NY, cat. 354248) for the first three passages. […]

CC[C@@]1(O)C(=O)OCc2c1cc1n(c2=O)Cc2cc3c(CN(C)C)c(O)ccc3nc2-1 + NC1CC1c1ccc(-c2cccc(O)c2)cc1
IC50 (second compound 0.1 µM): 8.38 nM | IC50 (second compound 0.316 µM): 8.87 nM | IC50 (second compound 1 µM): 10.5 nM | IC50 (second compound 3.16 µM): 13.3 nM | IC50 (second compound 10 µM): 13.2 nM | viability, T/C (second compound 0.1 µM, first compound 0.000316 µM): 110% | viability, T/C (second compound 0.1 µM, first compound 0.001 µM): 101% | viability, T/C (second compound 0.1 µM, first compound 0.00316 µM): 84.9% | viability, T/C (second compound 0.1 µM, first compound 0.01 µM): 43.3% | viability, T/C (second compound 0.1 µM, first compound 0.0316 µM): 13.4% | viability, T/C (second compound 0.1 µM, first compound 0.1 µM): 2.49% | viability, T/C (second compound 0.316 µM, first compound 0.000316 µM): 111% | viability, T/C (second compound 0.316 µM, first compound 0.001 µM): 103% | viability, T/C (second compound 0.316 µM, first compound 0.00316 µM): 86.2% | viability, T/C (second compound 0.316 µM, first compound 0.01 µM): 45.2% | viability, T/C (second compound 0.316 µM, first compound 0.0316 µM): 14.9% | viability, T/C (second compound 0.316 µM, first compound 0.1 µM): 2.48% | viability, T/C (second compound 1 µM, first compound 0.000316 µM): 101% | viability, T/C (second compound 1 µM, first compound 0.001 µM): 98.9% | viability, T/C (second compound 1 µM, first compound 0.00316 µM): 83.5% | viability, T/C (second compound 1 µM, first compound 0.01 µM): 52.2% | viability, T/C (second compound 1 µM, first compound 0.0316 µM): 16.3% | viability, T/C (second compound 1 µM, first compound 0.1 µM): 2.84% | viability, T/C (second compound 3.16 µM, first compound 0.000316 µM): 97% | viability, T/C (second compound 3.16 µM, first compound 0.001 µM): 94% | viability, T/C (second compound 3.16 µM, first compound 0.00316 µM): 81.2% | viability, T/C (second compound 3.16 µM, first compound 0.01 µM): 60.1% | viability, T/C (second compound 3.16 µM, first compound 0.0316 µM): 23.7% | viability, T/C (second compound 3.16 µM, first compound 0.1 µM): 4.48% | viability, T/C (second compound 10 µM, first compound 0.000316 µM): 95.1% | viability, T/C (second compound 10 µM, first compound 0.001 µM): 82.3% | viability, T/C (second compound 10 µM, first compound 0.00316 µM): 74.2% | viability, T/C (second compound 10 µM, first compound 0.01 µM): 57.1% | viability, T/C (second compound 10 µM, first compound 0.0316 µM): 31.4% | viability, T/C (second compound 10 µM, first compound 0.1 µM): 9.59%

Nc1ccn(C2OC(CO)C(O)C2(F)F)c(=O)n1 (stereo not given) + NC1CC1c1ccc(-c2cccc(O)c2)cc1
IC50 (second compound 0.1 µM): < 0.949 nM | IC50 (second compound 0.316 µM): < 0.949 nM | IC50 (second compound 1 µM): < 0.949 nM | IC50 (second compound 3.16 µM): < 0.949 nM | IC50 (second compound 10 µM): < 0.949 nM | viability, T/C (second compound 0.1 µM, first compound 0.000949 µM): 2.63% | viability, T/C (second compound 0.1 µM, first compound 0.003 µM): 2.71% | viability, T/C (second compound 0.1 µM, first compound 0.00949 µM): 2.9% | viability, T/C (second compound 0.1 µM, first compound 0.03 µM): 2.13% | viability, T/C (second compound 0.1 µM, first compound 0.0949 µM): 1.39% | viability, T/C (second compound 0.1 µM, first compound 0.3 µM): 0.69% | viability, T/C (second compound 0.316 µM, first compound 0.000949 µM): 2.24% | viability, T/C (second compound 0.316 µM, first compound 0.003 µM): 2.81% | viability, T/C (second compound 0.316 µM, first compound 0.00949 µM): 2.22% | viability, T/C (second compound 0.316 µM, first compound 0.03 µM): 1.81% | viability, T/C (second compound 0.316 µM, first compound 0.0949 µM): 1.11% | viability, T/C (second compound 0.316 µM, first compound 0.3 µM): 0.86% | viability, T/C (second compound 1 µM, first compound 0.000949 µM): 2.39% | viability, T/C (second compound 1 µM, first compound 0.003 µM): 2.3% | viability, T/C (second compound 1 µM, first compound 0.00949 µM): 2.24% | viability, T/C (second compound 1 µM, first compound 0.03 µM): 2.16% | viability, T/C (second compound 1 µM, first compound 0.0949 µM): 1.32% | viability, T/C (second compound 1 µM, first compound 0.3 µM): 0.73% | viability, T/C (second compound 3.16 µM, first compound 0.000949 µM): 2.52% | viability, T/C (second compound 3.16 µM, first compound 0.003 µM): 2.29% | viability, T/C (second compound 3.16 µM, first compound 0.00949 µM): 2.22% | viability, T/C (second compound 3.16 µM, first compound 0.03 µM): 2.18% | viability, T/C (second compound 3.16 µM, first compound 0.0949 µM): 1.17% | viability, T/C (second compound 3.16 µM, first compound 0.3 µM): 0.8% | viability, T/C (second compound 10 µM, first compound 0.000949 µM): 2.57% | viability, T/C (second compound 10 µM, first compound 0.003 µM): 2.57% | viability, T/C (second compound 10 µM, first compound 0.00949 µM): 3.02% | viability, T/C (second compound 10 µM, first compound 0.03 µM): 2.33% | viability, T/C (second compound 10 µM, first compound 0.0949 µM): 1.52% | viability, T/C (second compound 10 µM, first compound 0.3 µM): 1%
